Measured values published in PubChem BioAssay AID1963840 (Molecular Pharmacology Branch, DTP, NCI, 2024).

System: 695427-040-R-J1-PDC complex spheroid viability
Assay: Anticancer human tumor 695427-040-R-J1-PDC patient-derived colon adenocarcinoma cell line growth inhibition [POLQ]
Conditions: for IC50: curve of first compound; for viability, T/C: stronger effect = lower value
Procedure, shortened: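 Three-cell-type spheroids modelling solid tumor plus stroma served as the readout system; POL inhibitors were tested individually and in combination, concentration ranges set by clinical Cmax where known.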

[1] = second compound 0.0316 µM, first compound 0.0316 µM
[2] = second compound 0.0316 µM, first compound 0.1 µM
[3] = second compound 0.0316 µM, first compound 0.316 µM
[4] = second compound 0.0316 µM, first compound 1 µM
[5] = second compound 0.0316 µM, first compound 3.16 µM
[6] = second compound 0.0316 µM, first compound 10 µM
[7] = second compound 0.1 µM, first compound 0.0316 µM
[8] = second compound 0.1 µM, first compound 0.1 µM
[9] = second compound 0.1 µM, first compound 0.316 µM
[10] = second compound 0.1 µM, first compound 1 µM
[11] = second compound 0.1 µM, first compound 3.16 µM
[12] = second compound 0.1 µM, first compound 10 µM
[13] = second compound 0.316 µM, first compound 0.0316 µM
[14] = second compound 0.316 µM, first compound 0.1 µM
[15] = second compound 0.316 µM, first compound 0.316 µM
[16] = second compound 0.316 µM, first compound 1 µM
[17] = second compound 0.316 µM, first compound 3.16 µM
[18] = second compound 0.316 µM, first compound 10 µM
[19] = second compound 1 µM, first compound 0.0316 µM
[20] = second compound 1 µM, first compound 0.1 µM
[21] = second compound 1 µM, first compound 0.316 µM
[22] = second compound 1 µM, first compound 1 µM
[23] = second compound 1 µM, first compound 3.16 µM
[24] = second compound 1 µM, first compound 10 µM
[25] = second compound 3.16 µM, first compound 0.0316 µM
[26] = second compound 3.16 µM, first compound 0.1 µM
[27] = second compound 3.16 µM, first compound 0.316 µM
[28] = second compound 3.16 µM, first compound 1 µM
[29] = second compound 3.16 µM, first compound 3.16 µM
[30] = second compound 3.16 µM, first compound 10 µM
[31] = second compound 10 µM, first compound 0.0316 µM
[32] = second compound 10 µM, first compound 0.1 µM
[33] = second compound 10 µM, first compound 0.316 µM
[34] = second compound 10 µM, first compound 1 µM
[35] = second compound 10 µM, first compound 3.16 µM
[36] = second compound 10 µM, first compound 10 µM
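Further: spheroids exposed to compounds for seven days.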
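Wherever viability, T/C is given: 100% = DMSO vehicle control viability.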

Structure (SMILES): CC1COCCN1c1cc(-c2ccnn2C)c2ccnc(-c3ccn[nH]3)c2n1 (stereo not drawn) + COC1C(OC(N)=O)C(O)C(Oc2ccc3c(O)c(NC(=O)c4ccc(O)c(CC=C(C)C)c4)c(=O)oc3c2C)OC1(C)C
- IC50 (second compound 0.0316 µM): 1210 nM
- IC50 (second compound 0.1 µM): 1130 nM
- IC50 (second compound 0.316 µM): 1560 nM
- IC50 (second compound 1 µM): 748 nM
- IC50 (second compound 3.16 µM): 1210 nM
- IC50 (second compound 10 µM): 1470 nM
- viability, T/C [1]: 97.2%
- viability, T/C [2]: 83.3%
- viability, T/C [3]: 63.5%
- viability, T/C [4]: 50.3%
- viability, T/C [5]: 47%
- viability, T/C [6]: 44.8%
- viability, T/C [7]: 97.5%
- viability, T/C [8]: 81.1%
- viability, T/C [9]: 64.2%
- viability, T/C [10]: 49.9%
- viability, T/C [11]: 44.3%
- viability, T/C [12]: 44.7%
- viability, T/C [13]: 104%
- viability, T/C [14]: 79.7%
- viability, T/C [15]: 61.4%
- viability, T/C [16]: 51.2%
- viability, T/C [17]: 48.5%
- viability, T/C [18]: 44.6%
- viability, T/C [19]: 93.5%
- viability, T/C [20]: 85.9%
- viability, T/C [21]: 58.2%
- viability, T/C [22]: 49.4%
- viability, T/C [23]: 46.6%
- viability, T/C [24]: 41.8%
- viability, T/C [25]: 95.8%
- viability, T/C [26]: 86.8%
- viability, T/C [27]: 63.3%
- viability, T/C [28]: 52.1%
- viability, T/C [29]: 47.6%
- viability, T/C [30]: 44.7%
- viability, T/C [31]: 90.8%
- viability, T/C [32]: 80.6%
- viability, T/C [33]: 65.9%
- viability, T/C [34]: 47.5%
- viability, T/C [35]: 51%
- viability, T/C [36]: 46.2%

Structure (SMILES): CC1COCCN1c1cc(C2(S(C)(=N)=O)CC2)nc(-c2ccnc3[nH]ccc23)n1 (stereo not drawn) + COC1C(OC(N)=O)C(O)C(Oc2ccc3c(O)c(NC(=O)c4ccc(O)c(CC=C(C)C)c4)c(=O)oc3c2C)OC1(C)C
- IC50 (second compound 0.0316 µM): > 10000 nM
- IC50 (second compound 0.1 µM): > 10000 nM
- IC50 (second compound 0.316 µM): > 10000 nM
- IC50 (second compound 1 µM): > 10000 nM
- IC50 (second compound 3.16 µM): > 10000 nM
- IC50 (second compound 10 µM): > 10000 nM
- viability, T/C [1]: 96.3%
- viability, T/C [2]: 101%
- viability, T/C [3]: 101%
- viability, T/C [4]: 101%
- viability, T/C [5]: 93.9%
- viability, T/C [6]: 86%
- viability, T/C [7]: 124%
- viability, T/C [8]: 89.4%
- viability, T/C [9]: 104%
- viability, T/C [10]: 96.8%
- viability, T/C [11]: 97.6%
- viability, T/C [12]: 80.8%
- viability, T/C [13]: 104%
- viability, T/C [14]: 89.7%
- viability, T/C [15]: 101%
- viability, T/C [16]: 101%
- viability, T/C [17]: 101%
- viability, T/C [18]: 81.7%
- viability, T/C [19]: 104%
- viability, T/C [20]: 105%
- viability, T/C [21]: 102%
- viability, T/C [22]: 99.3%
- viability, T/C [23]: 107%
- viability, T/C [24]: 86.5%
- viability, T/C [25]: 94.1%
- viability, T/C [26]: 90.7%
- viability, T/C [27]: 99.7%
- viability, T/C [28]: 97.1%
- viability, T/C [29]: 107%
- viability, T/C [30]: 85.9%
- viability, T/C [31]: 104%
- viability, T/C [32]: 102%
- viability, T/C [33]: 102%
- viability, T/C [34]: 97.7%
- viability, T/C [35]: 102%
- viability, T/C [36]: 79%

Structure (SMILES): COc1ccc([C@@H](O)c2cc(-c3ncnc4cc(N5CCOCC5)ccc34)c(F)cc2Cl)nn1 + COC1C(OC(N)=O)C(O)C(Oc2ccc3c(O)c(NC(=O)c4ccc(O)c(CC=C(C)C)c4)c(=O)oc3c2C)OC1(C)C
- IC50 (second compound 0.0316 µM): > 10000 nM
- IC50 (second compound 0.1 µM): > 10000 nM
- IC50 (second compound 0.316 µM): > 10000 nM
- IC50 (second compound 1 µM): > 10000 nM
- IC50 (second compound 3.16 µM): > 10000 nM
- IC50 (second compound 10 µM): > 10000 nM
- viability, T/C [1]: 104%
- viability, T/C [2]: 99.5%
- viability, T/C [3]: 105%
- viability, T/C [4]: 92.9%
- viability, T/C [5]: 75.5%
- viability, T/C [6]: 56%
- viability, T/C [7]: 114%
- viability, T/C [8]: 104%
- viability, T/C [9]: 104%
- viability, T/C [10]: 94.2%
- viability, T/C [11]: 76.7%
- viability, T/C [12]: 57.9%
- viability, T/C [13]: 127%
- viability, T/C [14]: 99.1%
- viability, T/C [15]: 99%
- viability, T/C [16]: 89.9%
- viability, T/C [17]: 76.8%
- viability, T/C [18]: 51.5%
- viability, T/C [19]: 94.9%
- viability, T/C [20]: 92.3%
- viability, T/C [21]: 98.3%
- viability, T/C [22]: 91.5%
- viability, T/C [23]: 82%
- viability, T/C [24]: 54.5%
- viability, T/C [25]: 105%
- viability, T/C [26]: 101%
- viability, T/C [27]: 97%
- viability, T/C [28]: 98.4%
- viability, T/C [29]: 83.5%
- viability, T/C [30]: 57.6%
- viability, T/C [31]: 101%
- viability, T/C [32]: 89.6%
- viability, T/C [33]: 94.4%
- viability, T/C [34]: 101%
- viability, T/C [35]: 76.8%
- viability, T/C [36]: 51.7%

Structure (SMILES): Cn1ncnc1[C@H]1c2n[nH]c(=O)c3cc(F)cc(c23)N[C@@H]1c1ccc(F)cc1 + COC1C(OC(N)=O)C(O)C(Oc2ccc3c(O)c(NC(=O)c4ccc(O)c(CC=C(C)C)c4)c(=O)oc3c2C)OC1(C)C
- IC50 (second compound 0.0316 µM): > 100 nM
- IC50 (second compound 0.1 µM): > 100 nM
- IC50 (second compound 0.316 µM): > 100 nM
- IC50 (second compound 1 µM): > 100 nM
- IC50 (second compound 3.16 µM): > 100 nM
- IC50 (second compound 10 µM): > 100 nM
- viability, T/C (second compound 0.0316 µM, first compound 0.000316 µM): 92%
- viability, T/C (second compound 0.0316 µM, first compound 0.001 µM): 96.6%
- viability, T/C (second compound 0.0316 µM, first compound 0.00316 µM): 93.5%
- viability, T/C (second compound 0.0316 µM, first compound 0.01 µM): 105%
- viability, T/C [1]: 106%
- viability, T/C [2]: 84.1%
- viability, T/C (second compound 0.1 µM, first compound 0.000316 µM): 99.4%
- viability, T/C (second compound 0.1 µM, first compound 0.001 µM): 93.3%
- viability, T/C (second compound 0.1 µM, first compound 0.00316 µM): 107%
- viability, T/C (second compound 0.1 µM, first compound 0.01 µM): 101%
- viability, T/C [7]: 98.4%
- viability, T/C [8]: 83.8%
- viability, T/C (second compound 0.316 µM, first compound 0.000316 µM): 106%
- viability, T/C (second compound 0.316 µM, first compound 0.001 µM): 101%
- viability, T/C (second compound 0.316 µM, first compound 0.00316 µM): 98.4%
- viability, T/C (second compound 0.316 µM, first compound 0.01 µM): 106%
- viability, T/C [13]: 103%
- viability, T/C [14]: 92.1%
- viability, T/C (second compound 1 µM, first compound 0.000316 µM): 103%
- viability, T/C (second compound 1 µM, first compound 0.001 µM): 101%
- viability, T/C (second compound 1 µM, first compound 0.00316 µM): 96.3%
- viability, T/C (second compound 1 µM, first compound 0.01 µM): 95.1%
- viability, T/C [19]: 93.9%
- viability, T/C [20]: 91%
- viability, T/C (second compound 3.16 µM, first compound 0.000316 µM): 96.6%
- viability, T/C (second compound 3.16 µM, first compound 0.001 µM): 90.9%
- viability, T/C (second compound 3.16 µM, first compound 0.00316 µM): 90.9%
- viability, T/C (second compound 3.16 µM, first compound 0.01 µM): 98.3%
- viability, T/C [25]: 105%
- viability, T/C [26]: 94.6%
- viability, T/C (second compound 10 µM, first compound 0.000316 µM): 103%
- viability, T/C (second compound 10 µM, first compound 0.001 µM): 99.6%
- viability, T/C (second compound 10 µM, first compound 0.00316 µM): 99%
- viability, T/C (second compound 10 µM, first compound 0.01 µM): 106%
- viability, T/C [31]: 113%
- viability, T/C [32]: 101%
